Data from ChEMBL document CHEMBL3885881, “DrugMatrix”.

Species on record: Rattus norvegicus
Experiment: DrugMatrix - Regimen: Daily Repeat
Type: toxicity, organism-based, Sprague-Dawley
Set-up: regimen Daily Repeat, gender Male, age 6-8 weeks
Conditions: in vivo, iv, vehicle 100 % SALINE; for ABSOLUTE BASOPHIL / ABSOLUTE EOSINOPHIL / ABSOLUTE LYMPHOCYTE / ABSOLUTE MONOCYTE / ABSOLUTE SEGMENTED NEUTROPHIL / BASOPHIL / EOSINOPHIL / ERYTHROCYTE COUNT / HEMATOCRIT / HEMOGLOBIN / LEUKOCYTE COUNT / LYMPHOCYTE / MEAN CORPUSCULAR HEMOGLOBIN / MEAN CORPUSCULAR HEMOGLOBIN CONCENTRATION / MEAN CORPUSCULAR VOLUME / MONOCYTE / NEUTROPHIL / NUCLEATED RED BLOOD CELLS / PLATELET COUNT: tissue Blood; for ALANINE AMINOTRANSFERASE / ALBUMIN / ALKALINE PHOSPHATASE / ASPARTATE AMINOTRANSFERASE / BLOOD UREA NITROGEN / CARBON DIOXIDE / CHLORIDE / CHOLESTEROL / CREATINE PHOSPHOKINASE / CREATININE / GLUCOSE / LACTATE DEHYDROGENASE / LIPASE / PHOSPHORUS / POTASSIUM / SODIUM / TOTAL BILIRUBIN / TOTAL PROTEIN / URIC ACID: tissue Plasma
[1] = 0.4 mg/kg, 72 h, dose level Low, time 3 day
[2] = 0.4 mg/kg, 120 h, dose level Low, time 5 day
[3] = 4 mg/kg, 72 h, dose level High, time 3 day
[4] = 4 mg/kg, 120 h, dose level High, time 5 day

CCCCN1CCCC[C@H]1C(=O)Nc1c(C)cccc1C [LEVOBUPIVACAINE]
ABSOLUTE BASOPHIL [1]: 0 CELLS/uL
ABSOLUTE EOSINOPHIL [1]: 254.67 CELLS/uL
ABSOLUTE LYMPHOCYTE [1]: 15126.67 CELLS/uL
ABSOLUTE MONOCYTE [1]: 468.33 CELLS/uL
ABSOLUTE SEGMENTED NEUTROPHIL [1]: 1383.67 CELLS/uL
BASOPHIL [1]: 0%
EOSINOPHIL [1]: 1.33%
ERYTHROCYTE COUNT [1]: 5.99 x10E6/uL
HEMATOCRIT [1]: 37.7%
HEMOGLOBIN [1]: 13.83 G/DL
LEUKOCYTE COUNT [1]: 17.23 x10E3/uL
LYMPHOCYTE [1]: 88.33%
MEAN CORPUSCULAR HEMOGLOBIN [1]: 23.17 pg
MEAN CORPUSCULAR HEMOGLOBIN CONCENTRATION [1]: 36.7 G/DL
MEAN CORPUSCULAR VOLUME [1]: 63.07 fL
MONOCYTE [1]: 2.67%
NEUTROPHIL [1]: 7.67%
NUCLEATED RED BLOOD CELLS [1]: 0 /100WBC
PLATELET COUNT [1]: 1404.67 x10E3/uL
ALANINE AMINOTRANSFERASE [1]: 48.33 u/L
ALBUMIN [1]: 4.3 G/DL
ALKALINE PHOSPHATASE [1]: 344.33 u/L
ASPARTATE AMINOTRANSFERASE [1]: 82.67 u/L
BLOOD UREA NITROGEN [1]: 17.33 mg/dL
CARBON DIOXIDE [1]: 22 mmol/L
CHLORIDE [1]: 106 MEQ/L
CHOLESTEROL [1]: 74 mg/dL
CREATINE PHOSPHOKINASE [1]: 243 u/L
CREATININE [1]: 0.23 mg/dL
GLUCOSE [1]: 167.67 mg/dL
LACTATE DEHYDROGENASE [1]: 317 u/L
LIPASE [1]: 9 u/L
PHOSPHORUS [1]: 13.87 mg/dL
POTASSIUM [1]: 6.74 MEQ/L
SODIUM [1]: 148.9 MEQ/L
TOTAL BILIRUBIN [1]: 0.2 mg/dL
TOTAL PROTEIN [1]: 6.3 G/DL
URIC ACID [1]: 2.5 mg/dL
ABSOLUTE BASOPHIL [2]: 0 CELLS/uL
ABSOLUTE EOSINOPHIL [2]: 140.33 CELLS/uL
ABSOLUTE LYMPHOCYTE [2]: 13101.33 CELLS/uL
ABSOLUTE MONOCYTE [2]: 294.33 CELLS/uL
ABSOLUTE SEGMENTED NEUTROPHIL [2]: 1864 CELLS/uL
BASOPHIL [2]: 0%
EOSINOPHIL [2]: 1%
ERYTHROCYTE COUNT [2]: 5.93 x10E6/uL
HEMATOCRIT [2]: 37%
HEMOGLOBIN [2]: 14 G/DL
LEUKOCYTE COUNT [2]: 15.4 x10E3/uL
LYMPHOCYTE [2]: 85.33%
MEAN CORPUSCULAR HEMOGLOBIN [2]: 23.6 pg
MEAN CORPUSCULAR HEMOGLOBIN CONCENTRATION [2]: 37.83 G/DL
MEAN CORPUSCULAR VOLUME [2]: 62.47 fL
MONOCYTE [2]: 2%
NEUTROPHIL [2]: 11.67%
NUCLEATED RED BLOOD CELLS [2]: 0.33 /100WBC
PLATELET COUNT [2]: 1119 x10E3/uL
ALANINE AMINOTRANSFERASE [2]: 67.67 u/L
ALBUMIN [2]: 4.13 G/DL
ALKALINE PHOSPHATASE [2]: 394 u/L
ASPARTATE AMINOTRANSFERASE [2]: 122.67 u/L
BLOOD UREA NITROGEN [2]: 20 mg/dL
CARBON DIOXIDE [2]: 24.67 mmol/L
CHLORIDE [2]: 107.33 MEQ/L
CHOLESTEROL [2]: 54.33 mg/dL
CREATINE PHOSPHOKINASE [2]: 430.33 u/L
CREATININE [2]: 0.2 mg/dL
GLUCOSE [2]: 154.33 mg/dL
LACTATE DEHYDROGENASE [2]: 798.67 u/L
LIPASE [2]: 8.67 u/L
PHOSPHORUS [2]: 13.03 mg/dL
POTASSIUM [2]: 5.58 MEQ/L
SODIUM [2]: 148.47 MEQ/L
TOTAL BILIRUBIN [2]: 0.1 mg/dL
TOTAL PROTEIN [2]: 6.2 G/DL
URIC ACID [2]: 1.57 mg/dL
ABSOLUTE BASOPHIL [3]: 0 CELLS/uL
ABSOLUTE EOSINOPHIL [3]: 0 CELLS/uL
ABSOLUTE LYMPHOCYTE [3]: 11600.33 CELLS/uL
ABSOLUTE MONOCYTE [3]: 405 CELLS/uL
ABSOLUTE SEGMENTED NEUTROPHIL [3]: 1828 CELLS/uL
BASOPHIL [3]: 0%
EOSINOPHIL [3]: 0%
ERYTHROCYTE COUNT [3]: 5.58 x10E6/uL
HEMATOCRIT [3]: 35.27%
HEMOGLOBIN [3]: 13.37 G/DL
LEUKOCYTE COUNT [3]: 13.83 x10E3/uL
LYMPHOCYTE [3]: 83.67%
MEAN CORPUSCULAR HEMOGLOBIN [3]: 23.93 pg
MEAN CORPUSCULAR HEMOGLOBIN CONCENTRATION [3]: 37.9 G/DL
MEAN CORPUSCULAR VOLUME [3]: 63.2 fL
MONOCYTE [3]: 3%
NEUTROPHIL [3]: 13.33%
NUCLEATED RED BLOOD CELLS [3]: 0.33 /100WBC
PLATELET COUNT [3]: 1307 x10E3/uL
ALANINE AMINOTRANSFERASE [3]: 41.33 u/L
ALBUMIN [3]: 4.27 G/DL
ALKALINE PHOSPHATASE [3]: 430.67 u/L
ASPARTATE AMINOTRANSFERASE [3]: 83.33 u/L
BLOOD UREA NITROGEN [3]: 15.67 mg/dL
CARBON DIOXIDE [3]: 24.67 mmol/L
CHLORIDE [3]: 105.67 MEQ/L
CHOLESTEROL [3]: 62 mg/dL
CREATINE PHOSPHOKINASE [3]: 275.67 u/L
CREATININE [3]: 0.23 mg/dL
GLUCOSE [3]: 152 mg/dL
LACTATE DEHYDROGENASE [3]: 383 u/L
LIPASE [3]: 8.67 u/L
PHOSPHORUS [3]: 13.3 mg/dL
POTASSIUM [3]: 6.04 MEQ/L
SODIUM [3]: 146.8 MEQ/L
TOTAL BILIRUBIN [3]: 0.2 mg/dL
TOTAL PROTEIN [3]: 5.77 G/DL
URIC ACID [3]: 1.43 mg/dL
ABSOLUTE BASOPHIL [4]: 0 CELLS/uL
ABSOLUTE EOSINOPHIL [4]: 0 CELLS/uL
ABSOLUTE LYMPHOCYTE [4]: 14035 CELLS/uL
ABSOLUTE MONOCYTE [4]: 328 CELLS/uL
ABSOLUTE SEGMENTED NEUTROPHIL [4]: 2037 CELLS/uL
BASOPHIL [4]: 0%
EOSINOPHIL [4]: 0%
ERYTHROCYTE COUNT [4]: 5.6 x10E6/uL
HEMATOCRIT [4]: 34.2%
HEMOGLOBIN [4]: 13.05 G/DL
LEUKOCYTE COUNT [4]: 16.4 x10E3/uL
LYMPHOCYTE [4]: 85.5%
MEAN CORPUSCULAR HEMOGLOBIN [4]: 23.3 pg
MEAN CORPUSCULAR HEMOGLOBIN CONCENTRATION [4]: 38.15 G/DL
MEAN CORPUSCULAR VOLUME [4]: 61.1 fL
MONOCYTE [4]: 2%
NEUTROPHIL [4]: 12.5%
NUCLEATED RED BLOOD CELLS [4]: 0.5 /100WBC
PLATELET COUNT [4]: 1167 x10E3/uL
ALANINE AMINOTRANSFERASE [4]: 38 u/L
ALBUMIN [4]: 4.35 G/DL
ALKALINE PHOSPHATASE [4]: 311 u/L
ASPARTATE AMINOTRANSFERASE [4]: 72.5 u/L
BLOOD UREA NITROGEN [4]: 18 mg/dL
CARBON DIOXIDE [4]: 26.5 mmol/L
CHLORIDE [4]: 103 MEQ/L
CHOLESTEROL [4]: 57.5 mg/dL
CREATINE PHOSPHOKINASE [4]: 325.5 u/L
CREATININE [4]: 0.17 mg/dL
GLUCOSE [4]: 150.5 mg/dL
LACTATE DEHYDROGENASE [4]: 321.5 u/L
LIPASE [4]: 8 u/L
PHOSPHORUS [4]: 13.4 mg/dL
POTASSIUM [4]: 6.04 MEQ/L
SODIUM [4]: 146.65 MEQ/L
TOTAL BILIRUBIN [4]: 0.1 mg/dL
TOTAL PROTEIN [4]: 6.05 G/DL
URIC ACID [4]: 1.5 mg/dL
